Where two headings read alike, the source gives them in different places.
Experiments:
[1] = Human liver microsomal stability; format: in vitro ADME; settings: human liver microsomes
Protocol: Stability of compound (5 μL of a 10 mM DMSO solution) in human liver microsomes was tested in duplicate by incubating compound at 1 μM for 60 minutes at 37° C. Compound level at 60 minutes was compared to level at 0 minutes, and percent remaining was calculated. Order by selecting Microsomal Stability in Prometheus, checking boxes for desired species. Assay Controls: microsomes with NADPH without compound-matrix interference. Microsomes plus compound without NADPH—non-enzymatic instability.

[2] = tested on: MDR1-MDCK cell monolayers; assay: MDR1/MDCK permeability assay; format: in vitro ADME; settings: for MDCK Permeability (MDR1-MDCK); Mean; Papp(A-B) (10^−6 cm/s): A to B; for MDCK Permeability (MDR1-MDCK); Mean; Papp(B-A) (10^−6 cm/s): B to A; for MIDCK Permeability (MDR1-MDCK); Mean; P. Ratio(B-A/A-B) Efflux Ratio / MDCK Permeability (MDR1-MDCK); Mean; P. Ratio(B-A/A-B) Efflux Ratio: Papp B-A/A-B
Source text: The MDR1/MDCK assay is run at WuXi and Absorption Systems. This assay is used to determine the blood-brain barrier (BBB) penetration potential of a test compound using MDR1-MDCK cell monolayers. Catalog number EA203.
• The percent recovery of the test compound from the Transwell® wells containing MDR1-MDCK cell monolayers • The apparent permeability (Papp) in both directions • The efflux ratio (Papp B to A)/(Papp A to B) • The blood-brain barrier penetration potential classification: • High when • Papp A to B≥3.0×10^−6 cm/s, and efflux<3.0 • Moderate when • Papp A to B≥3.0×10^−6 cm/s, and 10>efflux≥3.0 • Low when either • Papp A to B≥3.0×10^−6 cm/s, and […], or when • Papp A to B<[…].
• Test compound at 5 μM in HBSSg with maximum DMSO concentration not greater than 1%.
• Confluent monolayers of MDR1-MDCK cells, 7 to 11 days old.
• Receiver well with 1% BSA in modified Hanks buffer (HBSSg) • Apical and basolateral side at pH 7.4 • Dose two monolayers in each direction (N=2) • Dose apical side for (A to B) assessment • Dose basolateral side for (B to A) assessment • Sample both apical and basolateral sides at 120 minutes • Determine the concentrations of test compound using a generic LC-MS/MS method with a minimum 4 point calibration curve.
• The quality of the cell monolayer batch is verified using control compounds before monolayers are released for use • The quality of each monolayer used in the assay is verified by a TEER measurement and by calculating the Papp for a control compound.

[3] = molecular target: T1, GSK3a (GST-full length GSK3a) (Homo sapiens, UniProt P49840); assay: GSK3a TR-FRET kinase inhibition assay; format: biochemical
T1 construct: GST-full length GSK3a [SignalChem G08-10G]; purchased SignalChem G08-10G
T1 sequence (P49840 whole entry): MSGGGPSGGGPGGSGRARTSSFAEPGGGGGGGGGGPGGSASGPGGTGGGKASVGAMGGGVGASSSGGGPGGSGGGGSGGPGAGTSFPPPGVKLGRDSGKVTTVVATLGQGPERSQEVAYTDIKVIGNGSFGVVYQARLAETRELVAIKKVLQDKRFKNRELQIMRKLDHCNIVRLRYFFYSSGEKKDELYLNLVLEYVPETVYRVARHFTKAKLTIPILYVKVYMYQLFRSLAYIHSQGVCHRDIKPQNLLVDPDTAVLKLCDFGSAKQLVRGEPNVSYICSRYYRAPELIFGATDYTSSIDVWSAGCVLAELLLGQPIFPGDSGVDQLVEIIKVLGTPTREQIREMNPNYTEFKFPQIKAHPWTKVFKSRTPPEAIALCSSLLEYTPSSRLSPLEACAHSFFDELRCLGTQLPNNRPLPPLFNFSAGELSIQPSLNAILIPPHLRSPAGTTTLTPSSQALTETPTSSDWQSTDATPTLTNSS
Procedure, shortened: (§1)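 GST-tagged full-length human kinase (1 nM), pre-incubated 30 min with compound, then reacted 100 min at ambient temperature at pH 7.5 with 200 nM biotinylated phospho-S645 glycogen synthase 631–650 peptide and ATP at 2 μM–1 mM. After EDTA quench, Tb-pSer641 antibody/streptavidin-d2 TR-FRET 665/615 ratio fitted for IC50.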

[4] = molecular target: T2, GSK3b (GST-full length GSK3b) (Homo sapiens, UniProt P49841); assay: GSK3b TR-FRET kinase inhibition assay; format: biochemical
T2 construct: GST-full length GSK3b: [SignalChem G08-9G]; purchased SignalChem G08-9G
T2 sequence (P49841 whole entry): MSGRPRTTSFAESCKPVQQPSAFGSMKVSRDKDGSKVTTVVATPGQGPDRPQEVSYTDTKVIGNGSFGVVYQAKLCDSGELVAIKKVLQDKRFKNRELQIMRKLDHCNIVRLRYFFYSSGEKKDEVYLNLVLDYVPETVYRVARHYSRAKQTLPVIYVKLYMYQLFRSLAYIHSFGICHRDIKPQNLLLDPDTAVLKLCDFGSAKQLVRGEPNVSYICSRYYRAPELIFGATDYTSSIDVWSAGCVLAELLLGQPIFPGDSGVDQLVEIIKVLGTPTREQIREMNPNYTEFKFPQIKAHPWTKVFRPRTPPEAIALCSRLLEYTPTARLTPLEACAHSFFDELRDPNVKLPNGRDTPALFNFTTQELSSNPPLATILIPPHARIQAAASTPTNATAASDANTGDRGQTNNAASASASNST
Procedure, shortened: as §1

[5] = 10 μM ATP, read-out: GSK3a 10 μM ATP Average IC50
[6] = 10 μM ATP, read-out: GSK3b 10 μM ATP Average IC50
[7] = 100 μM ATP, read-out: GSK3b 100 μM ATP Average IC50
[8] = 1 mM ATP, Table 3, read-out: GSK3b TR-FRET 1 mM ATP Average IC50
[9] = 1 mM ATP, Table 3, read-out: GSK3a TR-FRET 1 mM ATP Average IC50
[10] = 100 μM ATP, read-out: GSK3a 100 μM ATP Average IC50
[11] = 4 μM ATP, read-out: GSK3α TR-FRET 4 μM ATP GMean IC50
[12] = 1 mM ATP, Table 4, read-out: GSK3α TR-FRET 1 mM ATP GMean IC50
[13] = 2 μM ATP, read-out: GSK3β TR-FRET 2 μM ATP GMean IC50
[14] = 1 mM ATP, Table 4, read-out: GSK3β TR-FRET 1 mM ATP GMean IC50

| SMILES | Microsome Stability (Human) (DMPK_BIIB); Mean; in vitro t1/2 ([1]; Table 3) | MDCK Permeability (MDR1-MDCK); Mean; Papp(A-B) (10^−6 cm/s) ([2]; Table 3) | MDCK Permeability (MDR1-MDCK); Mean; Papp(B-A) (10^−6 cm/s) ([2]; Table 3) | MIDCK Permeability (MDR1-MDCK); Mean; P. Ratio(B-A/A-B) Efflux Ratio ([2]; Table 3) | IC50 [3, 5] | IC50 [4, 6] | IC50 [4, 7] | IC50 [4, 8] | IC50 [3, 9] | IC50 [3, 10] | Microsome Stability (Human) (DMPK_BIIB); Mean; in vitro t1/2 ([1]; Table 4) | MDCK Permeability (MDR1-MDCK); Mean; Papp(A-B) (10^−6 cm/s) ([2]; Table 4) | MDCK Permeability (MDR1-MDCK); Mean; Papp(B-A) (10^−6 cm/s) ([2]; Table 4) | MDCK Permeability (MDR1-MDCK); Mean; P. Ratio(B-A/A-B) Efflux Ratio ([2]; Table 4) | IC50 [3, 11] | IC50 [3, 12] | IC50 [4, 13] | IC50 [4, 14] |
| --- | --- | --- | --- | --- | --- | --- | --- | --- | --- | --- | --- | --- | --- | --- | --- | --- | --- | --- |
| CC(C)(C)Cc1cnc2c(c1)C(C)(c1ccccc1)C1=C(CC(C)(C)CC1=O)N2 (single isomer, unassigned) [Compound 129A] | 11 min | 2.1 10^−6 cm/s | 1.2 10^−6 cm/s | 0.60 | 20 to 60 µM | 5 to 20 µM | 20 to 60 µM | 5 to 20 µM | – | – | – | – | – | – | – | – | – | – |
| CC(C)(C)Cc1cnc2c(c1)C(C)(c1ccccc1)C1=C(CC(C)(C)CC1=O)N2 (single isomer, unassigned) [Compound 129B] | 1.1 min | 1.8 10^−6 cm/s | 1.0 10^−6 cm/s | 0.59 | 20 to 60 µM | 5 to 20 µM | 20 to 60 µM | 5 to 20 µM | 5 to 20 µM | – | – | – | – | – | – | – | – | – |
| CC(C)(C)Cc1ccnc2c1C(C)(c1ccccc1)C1=C(CC(C)(C)CC1=O)N2 (single isomer, unassigned) [Compound 130A] | 0.55 min | 1.4 10^−6 cm/s | 0.65 10^−6 cm/s | 0.48 | ≤ 0.1 µM | ≤ 0.1 µM | 0.1 to 1 µM | 5 to 20 µM | 5 to 20 µM | 0.1 to 1 µM | – | – | – | – | – | – | – | – |
| CC(C)(C)Cc1ccnc2c1C(C)(c1ccccc1)C1=C(CC(C)(C)CC1=O)N2 (single isomer, unassigned) [Compound 130B] | 0.53 min | 1.3 10^−6 cm/s | 0.75 10^−6 cm/s | 0.60 | 0.1 to 1 µM | 0.1 to 1 µM | 0.1 to 1 µM | 5 to 20 µM | 5 to 20 µM | 1 to 5 µM | – | – | – | – | – | – | – | – |
| CCC1(c2cccc(-c3cncn3C(C)C)c2)C2=C(CC(C)(C)CC2=O)Nc2ncccc21 (single isomer, unassigned) [Compound 149A] | 16 min | – | – | – | ≤ 0.1 µM | ≤ 0.1 µM | ≤ 0.1 µM | 0.1 to 1 µM | 0.1 to 1 µM | ≤ 0.1 µM | 9.9 min | 2.3 10^−6 cm/s | 41 10^−6 cm/s | 18 | ≤ 0.1 µM | ≤ 0.1 µM | ≤ 0.1 µM | 0.1 to 1 µM |
| CCC1(c2cccc(-c3c(C)nn(C)c3C)c2)C2=C(CC(C)(C)CC2=O)Nc2ncccc21 (single isomer, unassigned) [Compound 150A] | 1.9 min | 20 10^−6 cm/s | 17 10^−6 cm/s | 0.93 | ≤ 0.1 µM | ≤ 0.1 µM | ≤ 0.1 µM | 0.1 to 1 µM | 0.1 to 1 µM | ≤ 0.1 µM | – | – | – | – | 1 to 5 µM | – | > 5 µM | – |
| CCC1(c2cccc(-c3c(C)nn(C)c3C)c2)C2=C(CC(C)(C)CC2=O)Nc2ncccc21 (single isomer, unassigned) [Compound 150B] | – | – | – | – | – | – | – | – | – | – | 2.7 min | 2.9 10^−6 cm/s | 29 10^−6 cm/s | 9.9 | ≤ 0.1 µM | 0.1 to 1 µM | ≤ 0.1 µM | 1 to 5 µM |
| CCC1(c2cccc(-c3c(F)cncc3OC)c2)C2=C(CC(C)(C)CC2=O)Nc2ncccc21 (single isomer, unassigned) [Compound 154A] | 6.4 min | 15 10^−6 cm/s | 9.5 10^−6 cm/s | 0.62 | – | – | – | – | – | – | – | – | – | – | > 5 µM | – | > 5 µM | – |
| CCC1(c2cccc(-c3c(F)cncc3OC)c2)C2=C(CC(C)(C)CC2=O)Nc2ncccc21 (single isomer, unassigned) [Compound 154B] | – | – | – | – | – | – | – | 5 to 20 µM | 5 to 20 µM | – | 6.6 min | 3.1 10^−6 cm/s | 25 10^−6 cm/s | 8.3 | ≤ 0.1 µM | ≤ 0.1 µM | ≤ 0.1 µM | 0.1 to 1 µM |
| CCC1(c2cccc(-c3c(F)cncc3OC)c2)C2=C(CC(C)(C)CC2=O)Nc2ncc(F)cc21 (single isomer, unassigned) [Compound 161A] | 10 min | 12 10^−6 cm/s | 6.9 10^−6 cm/s | 0.59 | – | – | – | – | – | – | – | – | – | – | 0.1 to 1 µM | – | 1 to 5 µM | – |
| CCC1(c2cccc(-c3c(F)cncc3OC)c2)C2=C(CC(C)(C)CC2=O)Nc2ncc(F)cc21 (single isomer, unassigned) [Compound 161B] | – | – | – | – | – | – | – | 1 to 5 µM | 0.1 to 1 µM | – | 5.6 min | 5.2 10^−6 cm/s | 33 10^−6 cm/s | 6.4 | ≤ 0.1 µM | ≤ 0.1 µM | ≤ 0.1 µM | ≤ 0.1 µM |

Reference: patent publication US20260103465A1, “GLYCOGEN SYNTHASE KINASE 3 INHIBITORS AND USES THEREOF” (The Broad Institute, Inc., priority 2023, published 2026)
